Assay [1] relates to human dorsal root ganglion (DRG) neurons. Briefly: Patch-clamp of transient sodium currents in human DRG neurons. The format is cell-based. The procedure:
Non-diseased human DRGs were obtained from donors through NDRI with permission of exemption from Duke IRB. Postmortem L3-L5 DRGs were dissected and delivered in ice-cold culture medium to the laboratory at Duke University within 24-72 hours of donor's death. Upon the delivery, DRGs were rapidly dissected from nerve roots and minced in a calcium-free HBSS (Gibco). DRGs were digested at 37° C. in a humidified 02 incubator for 120 min with collagenase Type II (Worthington, 285 units/mg, 12 mg/mL final concentration) and dispase II (Roche, 1 unit/mg, 20 mg/mL) in HBSS buffer. DRGs were mechanically dissociated using fire-polished pipettes, filtered through a […] nylon mesh and centrifuged (500×g for 5 min). The pellet was resuspended, plated on 0.5 mg/mL poly-D-lysine-coated glass coverslips, and cells were grown in Neurobasal medium supplemented with 10% FBS, 2% B-27 supplement, and 1% penicillin/streptomycin. Patch clamp recordings were conducted in small-diameter (<55 μm) DRG neurons (PMID: 26479925).
Whole-cell patch-clamp recordings were conducted at room temperature. Patch pipettes pulled from borosilicate capillaries (World Precision Instruments, Inc., Sarasota, FL) were used to record transient Na currents with an Axopatch-200B amplifier with a Digidata 1440A (Axon Instruments, Sunnyvale CA). The resistance was set to 3-4 MΩ when filled with pipette solution. […]
In general terms: In patch-clamp work, channel activity is measured electrically.

The subject of assay [2] is paclitaxel-induced mechanical allodynia. Put plainly: Paclitaxel-induced neuropathic pain model (von Frey). Format: in vivo, mouse. Conditions: for effect on paclitaxel-induced mechanical allodynia: mice. The method, then: Intraperitoneal injection of paclitaxel (PTX, 2 mg/kg for multiple injections at day 0, 2, 4, and 6) was given to generate chemotherapy-associated neuropathic pain. Neuropathic pain behavior was tested 3 weeks after PTX injection using a von Frey test. Briefly, animals were habituated to the testing environment daily for at least 2 days before the baseline testing. Animals were confined in boxes placed on an elevated metal mesh floor and the hind paws were stimulated with a series of von Frey hairs with logarithmically increasing stiffness (0.02-2.56 g, Stoelting), presented perpendicularly to the central plantar surface. The 50% paw withdrawal threshold was determined by an up-down method.

In assay [3] the test system is mouse dorsal root ganglion (DRG) neurons. Briefly: Patch-clamp of transient sodium currents in mouse DRG neurons (naive and paclitaxel-pretreated). The format is cell-based. Conditions: for inhibition at 10 µM: Mus musculus, DRG neuron. The procedure: Mouse DRGs were removed aseptically from mice (4-6 weeks) and incubated with collagenase (1.25 mg/mL, Roche)/dispase-II (2.4 units/mL, Roche) in HBSS buffer at 37° C. for 90 min. Cells were mechanically dissociated with a flame polished Pasteur pipette in the presence of 0.05% DNAse I (Sigma). DRG cells were plated on 0.5 mg/mL poly-D-lysine-coated glass cover slips and grown in a neurobasal defined medium (with 10% FBS, 2% B27 supplement, Invitrogen) with 5 μM AraC and 5% carbon dioxide at 36.5° C. DRG neurons were grown for 24 hours before use. Patch clamp recordings were conducted in small-diameter (<25 μm) DRG neurons.
(§1) Whole-cell patch-clamp recordings were conducted at room temperature. Patch pipettes pulled from borosilicate capillaries (World Precision Instruments, Inc., Sarasota, FL) were used to record transient Na currents with an Axopatch-200B amplifier with a Digidata 1440A (Axon Instruments, Sunnyvale CA). The resistance was set to 3-4 MΩ when filled with pipette solution. The pipette solution contained (in mmol/L): CsCl 130, NaCl 9, MgCl2 1, EGTA 10, HEPES 10, adjusted to pH 7.3 with CsOH. The external solution for recording transient Na^+ currents contained (in mmol/L): NaCl 131, TEACl 10, CsCl 10, CaCl2) 1, MgCl2 2, CdCl2 0.3, 4-aminopyridine 3, HEPES 10, glucose 10, adjusted to pH 7.4 with NaOH. The recording chamber (300 μL) was continuously superfused at 3-4 mL/min. Series resistance was compensated (>80%) and leak subtraction was performed. Data were low-pass-filtered at 2 kHz and sampled at 10 kHz. pClamp10 (Axon Instruments) software was used during experiments and analysis. In voltage-clamp experiments, transient Na+ currents were evoked by a test pulse to 0 mV from the holding potential (−70 mV).

Assay [4] has as its target T1, hNav1.5 (Homo sapiens, UniProt Q14524).
T1 construct: expressed in transfected cells; host or cells: HEK293 (ATCC), transient transfection with Lipofectamine 2000
Put plainly: Whole-cell patch-clamp of sodium currents in Nav1.5-transfected HEK293 cells. The format is cell-based. Conditions: FIG. 4D, E. The procedure: (§2) HEK-hNav1.7 stable cell line was purchased from SB Drug Discovery (Glasgow, United Kingdom). Human embryonic kidney 293 (HEK293) cells were obtained from the ATCC and maintained at the Duke cell culture facility. Cells were cultured in high-glucose (4.5 g/L) DMEM containing 10% (v/v) FBS (Gibco) and streptomycin/penicillin. For Nav1.7-expressing HEK293 cells, an additional antibiotic, blasticidin, was included. hNav1.5 transfection was performed by Lipofectamine 2000 at 70% confluence using 2 μg cDNA. The transfected cells were cultured in the same growth medium for 48 h before biochemical or electrophysiological studies.
as §1, with “Series resistance was compensated (>80%) and leak subtraction was performed. Data were low-pass-filtered at 2 kHz and sampled at 10 kHz. pClamp10 (Axon Instruments) software was used during experiments and analysis. In voltage-clamp experiments, transient Na+ currents were evoked by a test pulse to 0 mV from the holding potential (−70 mV).” left out

Assay [5] relates to lymphoma-induced chronic itch. Put plainly: Mouse CTCL xenograft model of chronic itch. Format: in vivo. The method, then:
We used a murine xenograft model of cutaneous T cell lymphoma (CTCL) using immune-deficient mice (NOD.CB17-Prkdcscid, 8-10 weeks old, male). CD4+ MyLa cell line was purchased from Sigma (Catalog #95051032). The cell line was established from a plaque biopsy of a person with mycosis fungoides stage II by inclusion of IL-2 and IL-4 in the culture medium. CTCL was generated via intradermal injection of CD4+ Myla cells (1×10^5 cells/μL, 100 μL) on the nape of the neck. Itch behavior was tested on Day 50 after inoculation of CTCL cells.

The target in assay [6] is human Nav1.7 (Homo sapiens, UniProt Q15858). Briefly: Whole-cell patch-clamp of sodium currents in Nav1.7-expressing HEK293 cells. Format: cell-based. The method, then: as §2, §1
The effects of the 9 selected compounds on Nav1.7 channel activities were tested using patch-clamp recordings on human Nav1.7 expressing HEK293 cells (FIG. 3, FIG. 4). In each cell, sodium currents were recorded for 13 min, and candidate inhibitors (10 μM) were incubated for 2 min after 2 min baseline recording (FIG. 3). Compound was applied at the beginning of the second minute for two minutes (denoted as a horizontal line above the X-axis). Sodium currents were recorded at equal intervals (every 20 seconds, 40 recordings per compound per cell). Data was analyzed with a two-way repeated measures ANOVA, followed by a post-hoc test of the last timepoint Bonferroni-corrected for 9 pairwise comparisons (each compound was compared with control). […] Sample size n=3 to 7 cells per group.
For FIG. 4C, sample size was n=5 to 7 cells per group. Compound was applied at the beginning of the second minute for two minutes (denoted as a horizontal line above the X-axis). Sodium currents were recorded every 20 seconds.

“Also recorded” adds a separate entry of the source. Like-named read-outs stand apart in the source and are kept apart here.

human Nav1.7, sequence (Q15858 whole entry): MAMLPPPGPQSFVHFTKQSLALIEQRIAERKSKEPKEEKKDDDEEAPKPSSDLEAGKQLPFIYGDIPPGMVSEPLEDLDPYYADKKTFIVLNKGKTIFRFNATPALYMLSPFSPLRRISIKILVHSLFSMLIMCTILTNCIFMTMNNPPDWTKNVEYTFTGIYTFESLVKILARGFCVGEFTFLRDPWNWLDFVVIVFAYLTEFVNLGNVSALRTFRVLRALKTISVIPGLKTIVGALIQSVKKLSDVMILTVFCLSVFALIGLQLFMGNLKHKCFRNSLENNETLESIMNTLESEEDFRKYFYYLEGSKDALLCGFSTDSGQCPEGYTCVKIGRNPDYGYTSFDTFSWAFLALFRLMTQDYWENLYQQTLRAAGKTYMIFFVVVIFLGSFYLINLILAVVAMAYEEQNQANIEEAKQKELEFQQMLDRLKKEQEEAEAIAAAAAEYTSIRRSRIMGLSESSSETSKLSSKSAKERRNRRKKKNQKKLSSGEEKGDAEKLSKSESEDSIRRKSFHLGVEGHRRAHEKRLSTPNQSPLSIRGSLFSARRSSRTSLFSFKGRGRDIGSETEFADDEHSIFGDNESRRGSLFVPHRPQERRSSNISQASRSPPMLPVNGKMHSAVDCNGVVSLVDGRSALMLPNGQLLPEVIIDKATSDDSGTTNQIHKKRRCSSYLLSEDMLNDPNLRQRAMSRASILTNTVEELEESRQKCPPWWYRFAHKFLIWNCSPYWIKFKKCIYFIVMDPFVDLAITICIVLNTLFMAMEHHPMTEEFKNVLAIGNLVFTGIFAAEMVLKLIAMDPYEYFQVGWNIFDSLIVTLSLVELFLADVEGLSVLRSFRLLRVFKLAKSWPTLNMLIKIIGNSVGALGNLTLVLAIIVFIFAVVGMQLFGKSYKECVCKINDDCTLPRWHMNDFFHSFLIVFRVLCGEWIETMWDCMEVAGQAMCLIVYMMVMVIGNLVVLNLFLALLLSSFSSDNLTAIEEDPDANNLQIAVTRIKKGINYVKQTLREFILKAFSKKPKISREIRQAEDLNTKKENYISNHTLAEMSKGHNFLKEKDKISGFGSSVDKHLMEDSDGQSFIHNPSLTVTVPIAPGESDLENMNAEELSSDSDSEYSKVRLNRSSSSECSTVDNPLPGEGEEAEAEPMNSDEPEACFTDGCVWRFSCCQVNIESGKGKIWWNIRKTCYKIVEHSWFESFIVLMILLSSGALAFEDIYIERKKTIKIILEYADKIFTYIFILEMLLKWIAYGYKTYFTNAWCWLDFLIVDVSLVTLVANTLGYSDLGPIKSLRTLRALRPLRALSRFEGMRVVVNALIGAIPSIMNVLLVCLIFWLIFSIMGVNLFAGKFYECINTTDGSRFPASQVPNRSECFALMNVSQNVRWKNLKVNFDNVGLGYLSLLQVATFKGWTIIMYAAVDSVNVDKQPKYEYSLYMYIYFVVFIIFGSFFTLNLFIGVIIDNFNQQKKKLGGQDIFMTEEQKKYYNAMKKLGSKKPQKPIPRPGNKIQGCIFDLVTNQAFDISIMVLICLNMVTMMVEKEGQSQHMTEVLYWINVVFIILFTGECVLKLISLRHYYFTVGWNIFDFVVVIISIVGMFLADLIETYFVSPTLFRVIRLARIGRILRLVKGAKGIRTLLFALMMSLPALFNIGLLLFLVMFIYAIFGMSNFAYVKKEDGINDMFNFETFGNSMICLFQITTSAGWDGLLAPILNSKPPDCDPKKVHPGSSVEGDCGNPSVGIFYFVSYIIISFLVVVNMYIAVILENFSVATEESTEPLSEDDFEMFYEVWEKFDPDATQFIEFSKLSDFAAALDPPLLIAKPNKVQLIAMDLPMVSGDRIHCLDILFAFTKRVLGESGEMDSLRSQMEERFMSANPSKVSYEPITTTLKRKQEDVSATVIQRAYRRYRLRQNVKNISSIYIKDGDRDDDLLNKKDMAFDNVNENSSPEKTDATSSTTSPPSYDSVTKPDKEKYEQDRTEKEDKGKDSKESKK
T1 sequence (Q14524 whole entry): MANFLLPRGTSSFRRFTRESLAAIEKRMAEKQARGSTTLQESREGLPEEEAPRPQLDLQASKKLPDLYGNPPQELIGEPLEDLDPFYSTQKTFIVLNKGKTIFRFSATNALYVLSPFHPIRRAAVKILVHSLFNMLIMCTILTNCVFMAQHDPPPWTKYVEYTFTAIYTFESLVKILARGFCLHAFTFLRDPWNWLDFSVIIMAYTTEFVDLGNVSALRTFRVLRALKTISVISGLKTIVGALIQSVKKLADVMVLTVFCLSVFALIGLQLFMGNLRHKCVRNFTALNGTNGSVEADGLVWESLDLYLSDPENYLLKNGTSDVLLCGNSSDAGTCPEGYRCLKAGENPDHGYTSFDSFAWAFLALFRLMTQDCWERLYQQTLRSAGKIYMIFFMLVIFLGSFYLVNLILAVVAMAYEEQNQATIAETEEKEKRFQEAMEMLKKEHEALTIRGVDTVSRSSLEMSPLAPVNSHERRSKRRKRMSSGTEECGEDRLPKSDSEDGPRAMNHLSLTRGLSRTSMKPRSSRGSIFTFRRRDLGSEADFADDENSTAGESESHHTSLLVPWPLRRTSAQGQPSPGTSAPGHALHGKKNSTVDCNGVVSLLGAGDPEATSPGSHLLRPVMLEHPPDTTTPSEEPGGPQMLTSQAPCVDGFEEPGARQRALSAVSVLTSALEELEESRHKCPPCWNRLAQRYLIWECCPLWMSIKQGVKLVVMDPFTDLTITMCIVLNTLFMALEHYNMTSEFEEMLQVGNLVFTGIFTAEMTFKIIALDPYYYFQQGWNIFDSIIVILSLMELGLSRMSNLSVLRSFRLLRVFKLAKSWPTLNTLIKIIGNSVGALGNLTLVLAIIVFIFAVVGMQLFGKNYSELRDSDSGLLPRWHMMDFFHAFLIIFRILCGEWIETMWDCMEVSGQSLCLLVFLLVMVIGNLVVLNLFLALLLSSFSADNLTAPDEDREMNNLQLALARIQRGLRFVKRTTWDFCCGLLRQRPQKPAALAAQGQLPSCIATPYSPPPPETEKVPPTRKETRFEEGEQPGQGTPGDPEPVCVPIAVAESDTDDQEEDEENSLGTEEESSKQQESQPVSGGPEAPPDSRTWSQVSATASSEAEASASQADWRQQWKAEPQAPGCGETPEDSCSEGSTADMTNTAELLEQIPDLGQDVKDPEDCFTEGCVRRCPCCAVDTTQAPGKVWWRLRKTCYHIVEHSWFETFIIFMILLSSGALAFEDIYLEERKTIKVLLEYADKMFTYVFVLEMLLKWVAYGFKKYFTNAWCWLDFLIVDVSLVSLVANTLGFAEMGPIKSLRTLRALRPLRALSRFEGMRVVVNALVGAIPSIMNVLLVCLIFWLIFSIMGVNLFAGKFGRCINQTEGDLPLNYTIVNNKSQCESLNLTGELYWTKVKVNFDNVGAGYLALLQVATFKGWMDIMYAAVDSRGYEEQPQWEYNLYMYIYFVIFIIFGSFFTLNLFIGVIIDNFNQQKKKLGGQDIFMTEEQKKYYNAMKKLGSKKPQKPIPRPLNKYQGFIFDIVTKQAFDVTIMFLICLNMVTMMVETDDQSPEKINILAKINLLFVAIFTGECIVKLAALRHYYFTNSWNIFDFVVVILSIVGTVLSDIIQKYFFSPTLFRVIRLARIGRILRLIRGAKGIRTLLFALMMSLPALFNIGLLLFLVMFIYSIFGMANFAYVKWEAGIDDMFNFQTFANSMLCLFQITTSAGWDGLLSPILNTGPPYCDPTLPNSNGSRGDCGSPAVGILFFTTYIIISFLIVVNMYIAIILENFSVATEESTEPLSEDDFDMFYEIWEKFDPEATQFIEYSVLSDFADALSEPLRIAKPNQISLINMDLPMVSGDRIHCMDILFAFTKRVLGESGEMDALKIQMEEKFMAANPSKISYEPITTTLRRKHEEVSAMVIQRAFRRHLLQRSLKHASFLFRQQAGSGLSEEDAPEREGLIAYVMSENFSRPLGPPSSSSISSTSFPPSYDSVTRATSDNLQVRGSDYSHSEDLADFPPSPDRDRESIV

Consider `O=C(CC(c1cccc(Oc2ccccc2)c1)c1cn(Cc2ccccc2)c2ccccc12)NCCN1CCCC1` (stereo not shown) [Compound 9, 3-(1-benzyl-1H-indol-3-yl)-3-(3-phenoxyphenyl)-N-(2-(pyrrolidin-1-yl)ethyl)propanamide], for which the “mean relative current at the last measurement” value in assay [1] is 73 % of the baseline; in assay [3] (mouse DRG neurons, naive) it was 72 % of the baseline; in assay [3] (mouse DRG neurons, paclitaxel-treated), 43 % of the baseline. The “relative current difference (inhibition of peak INaT)” value in assay [1] (10 uM) came to 0.22. In addition, the “effect on paclitaxel-induced mechanical allodynia” value was “no effect on allodynia; also recorded: did not produce any anti-allodynia effects” in assay [2] (intraperitoneal 30 mg/kg, listed as DA-0218) and “acute reduction; also recorded: transiently but completely reversed; also recorded: statistically significant anti-allodynia effects” in assay [2] (intrathecal, single injection, listed as DA-0218). Also, in assay [2] (intrathecal, paclitaxel model), the “effect duration, chronic pain” value is reported as 3 h. Moreover, the “analgesic effect after repeated intrathecal injections (2nd and 3rd injection)” value in assay [2] (tested one hour after each injection, paclitaxel model, listed as DA-0218) was “did not produce any analgesic effect; also recorded: induced acute tolerance”. In addition, the “time to peak inhibition after the drug incubation” value in assay [3] (10 μM, mouse DRG neurons) came to 10 min. Besides, the inhibition at 10 µM was 17% in assay [3] (10 μM, naive (non-treated) mouse DRG neurons, read-out: inhibition of peak INaT (sodium currents)) and 44% in assay [3] (10 μM, paclitaxel pretreated mouse DRG neurons, read-out: inhibition of sodium currents). Further, the “effect on sodium currents in Nav1.5-expressing HEK293 cells” value in assay [4] was “no effects”; in assay [4] (listed as DA-0218), “no effect”. In addition, in assay [5] (intrathecal), the “effect duration, chronic itch” value is reported as > 5 h. Further, in assay [5] (intrathecal 30 nmol, Day 50 after CTCL inoculation, listed as DA-0218), the “effect on lymphoma-induced chronic itch (scratch)” value was “inhibited; also recorded: significant reduction of scratch; also recorded: effective against lymphoma-induced itch”. Moreover, the “difference in relative current from the control group at the last measurement” value in assay [6] (0.01 μM, dose-response (FIG. 4), not significant) is 0.13; in assay [6] (0.1 μM, dose-response (FIG. 4)), 0.27; in assay [6] (1 μM, dose-response (FIG. 4)), 0.47; in assay [6] (10 μM, dose-response (FIG. 4)) it was 0.76; in assay [6] (10 μM, screen of compounds 1-9 (FIG. 3)), 0.71. Moreover, the “inhibition of sodium currents vs. control” value in assay [6] (1 μM) is 47%. Moreover, the IC50 in assay [6] (Nav1.7-expressing HEK293 cells, dose-response, read-out: 50% inhibition concentration (IC50)) came out at 0.74 µM.

By inhibition is commonly meant the relative decrease from the control value, in per cent.

The record behind these values is US12533341B2, “Small molecule inhibitors of voltage-gated sodium channel 1.7 and methods of using same” (Duke University, priority 2019, dated 2026).
